Source: US6440903B1, “Substituted 2,4-diamino-1,3,5-triazines as herbicides” (Bayer Aktiengesellschaft, priority 1996, dated 2002)

Legend:
Assay type in all cases: in vivo
weeds = assay: Post-emergence test (summary in text); details: result in words
Procedure: Solvent: 5 parts by weight of acetone
Emulsifier: 1 part by weight of alkylaryl polyglycol ether
To produce a suitable preparation of active compound, 1 part by weight of active compound is mixed with the stated amount of solvent, the stated amount of emulsifier is added and the concentrate is diluted with water to the desired concentration.
Test plants which have a height of 5-15 cm are sprayed with the preparation of active compound such that the particular amounts of active compounds desired are applied per unit area. The concentration of the spray liquor is chosen so that the particular amounts of active compound desired are applied in 1000 l of water/ha.
After three weeks, the degree of damage to the plants is scored visually in % damage in comparison to the untreated control.
0%=no effect (like untreated control)

Chenopodium = assay: Post-emergence test; details: greenhouse, scored after three weeks; for % damage, Chenopodium / pest or weed control at 250 g/ha: 250 g of ai./ha; for pest or weed control at 250 g/ha / pest or weed control at 500 g/ha: Chenopodium, 504 h, read-out: % damage, Chenopodium; for pest or weed control at 500 g/ha: 500 g of ai./ha
Procedure: (§1) Post-emergence Test Solvent: 5 parts by weight of acetone Emulsifier: 1 part by weight of alkylaryl polyglycol ether To produce a suitable preparation of active compound, 1 part by weight of active compound is mixed with the stated amount of solvent, the stated amount of emulsifier is added and the concentrate is diluted with water to the desired concentration. Test plants which have a height of 5-15 cm are sprayed with the preparation of active compound such that the particular amounts of active compounds desired are applied per unit area. The concentration of the spray liquor is chosen so that the particular amounts of active compound desired are applied in 1000 l of water/ha. After three weeks, the degree of damage to the plants is scored visually in % damage in comparison to the untreated control. The Figures Denote: 0%=no effect (like untreated control) 100%=total destruction

Polygonum = assay: Post-emergence test; details: greenhouse, scored after three weeks; for % damage, Polygonum / pest or weed control at 250 g/ha: 250 g of ai./ha; for pest or weed control at 250 g/ha / pest or weed control at 500 g/ha: Polygonum, 504 h, read-out: % damage, Polygonum; for pest or weed control at 500 g/ha: 500 g of ai./ha
Procedure: as §1

Wheat = assay: Post-emergence test; details: greenhouse, scored after three weeks; for % damage, Wheat / plant injury at 250 g/ha: 250 g of ai./ha; for plant injury at 250 g/ha / plant injury at 500 g/ha: Triticum aestivum, 504 h, read-out: % damage, Wheat; for plant injury at 500 g/ha: 500 g of ai./ha
Procedure: as §1

Setaria = assay: Post-emergence test; details: greenhouse, scored after three weeks; for % damage, Setaria / pest or weed control at 250 g/ha: 250 g of ai./ha; for pest or weed control at 250 g/ha / pest or weed control at 500 g/ha: Setaria, 504 h, read-out: % damage, Setaria; for pest or weed control at 500 g/ha: 500 g of ai./ha
Procedure: as §1

Viola = assay: Post-emergence test; details: greenhouse, scored after three weeks; for % damage, Viola / pest or weed control at 250 g/ha: 250 g of ai./ha; for pest or weed control at 250 g/ha / pest or weed control at 500 g/ha: 504 h, read-out: % damage, Viola; for pest or weed control at 500 g/ha: 500 g of ai./ha
Procedure: as §1

Amaranthus = assay: Post-emergence test; details: greenhouse, scored after three weeks; for % damage, Amaranthus / pest or weed control at 250 g/ha: 250 g of ai./ha; for pest or weed control at 250 g/ha / pest or weed control at 500 g/ha: Amaranthus, 504 h, read-out: % damage, Amaranthus; for pest or weed control at 500 g/ha: 500 g of ai./ha
Procedure: as §1

For `CC(Cl)c1nc(N)nc(NC(C)c2ccc(Cl)cc2)n1` (stereo not drawn) [Example 96], the activity against weeds (weeds) was “strong activity”.

`CC(Cl)c1nc(N)nc(NC(C)c2ccc(Cl)cc2)n1` (stereo not drawn) [drawing 125] was tested, and the “% damage, Chenopodium” value (Chenopodium) was 95%, the “% damage, Polygonum” value (Polygonum) was 95% and the “% damage, Wheat” value (Wheat) was 10%. For the same compound, the “% damage, Setaria” value (Setaria) was 80%, the “% damage, Viola” value (Viola) was 95% and the “% damage, Amaranthus” value (Amaranthus) was 100%.

In the case of `CC(Nc1nc(N)nc(Cl)n1)c1ccc(Cl)cc1` (stereo not drawn) [Example 5], the activity against weeds (weeds) is reported as “strong activity”.

Compound `CC(Nc1nc(N)nc(C(C)(Cl)Cl)n1)c1ccc(Cl)cc1` (stereo not drawn) [drawing 121] has a pest or weed control at 250 g/ha (Chenopodium) of 100%, a pest or weed control at 250 g/ha (Polygonum) of 100% and a plant injury at 250 g/ha (Wheat) of 10%. For the same compound, the pest or weed control at 250 g/ha (Setaria) was 80%, the pest or weed control at 250 g/ha (Viola) was 100% and the pest or weed control at 250 g/ha (Amaranthus) was 100%.

In the case of `CCC(Nc1nc(N)nc(C(F)(F)F)n1)c1ccc(Cl)cc1` (stereo not drawn) [Example 86], the activity against weeds (weeds) is reported as “strong activity”.

With `COc1ccc(C(C)Nc2nc(NC(C)=O)nc(C(F)(F)F)n2)cc1` (stereo not drawn) [drawing 141] the pest or weed control at 500 g/ha (Chenopodium) was 100%, the pest or weed control at 500 g/ha (Polygonum) was 100% and the plant injury at 500 g/ha (Wheat) was 10%. The pest or weed control at 500 g/ha (Setaria) was 95%, the pest or weed control at 500 g/ha (Viola) was 100% and the pest or weed control at 500 g/ha (Amaranthus) was 100%.

`CC(Nc1nc(N)nc(C(F)C(F)(F)F)n1)c1ccc(Cl)cc1` (stereo not drawn) [drawing 128] was tested, and the “% damage, Chenopodium” value (Chenopodium) was 100%, the “% damage, Polygonum” value (Polygonum) was 100% and the “% damage, Wheat” value (Wheat) was 10%. For the same compound, the “% damage, Setaria” value (Setaria) was 90%, the “% damage, Viola” value (Viola) was 100% and the “% damage, Amaranthus” value (Amaranthus) was 100%.

`CC(Nc1nc(N)nc(C(F)(F)F)n1)c1ccc(Cl)cc1` (stereo not drawn) [Example 15] was tested, and the activity against weeds (weeds) was “strong activity”.

`CC(=O)Nc1nc(NC(C)c2ccc(Cl)cc2)nc(C(C)Cl)n1` (stereo not drawn) [drawing 134] showed a pest or weed control at 500 g/ha (Chenopodium) of 100%, a pest or weed control at 500 g/ha (Polygonum) of 100% and a plant injury at 500 g/ha (Wheat) of 10%. It also gave a pest or weed control at 500 g/ha (Setaria) of 100%, a pest or weed control at 500 g/ha (Viola) of 100% and a pest or weed control at 500 g/ha (Amaranthus) of 100%.

With `CCc1nc(N)nc(NC(C)c2ccc(Cl)cc2)n1` (stereo not drawn) [Example 153] the activity against weeds (weeds) was “strong activity”.

`CC(Nc1nc(N)nc(Cl)n1)c1ccc(Cl)cc1` (stereo not drawn) [Example 8] was tested, and the activity against weeds (weeds) was “strong activity”.

Work on `CSc1ccc(C(C)Nc2nc(N)nc(C(C)(Cl)Cl)n2)cc1` (stereo not drawn) [drawing 114] yielded a pest or weed control at 500 g/ha (Chenopodium) of 100%, a pest or weed control at 500 g/ha (Polygonum) of 100% and a plant injury at 500 g/ha (Wheat) of 0%. It also gave a pest or weed control at 500 g/ha (Setaria) of 80%, a pest or weed control at 500 g/ha (Viola) of 100% and a pest or weed control at 500 g/ha (Amaranthus) of 100%.

`CC(Nc1nc(N)nc(C(Cl)Cl)n1)c1ccc(Cl)cc1` (stereo not drawn) [drawing 119] showed a pest or weed control at 250 g/ha (Chenopodium) of 100%, a pest or weed control at 250 g/ha (Polygonum) of 100% and a plant injury at 250 g/ha (Wheat) of 10%. The pest or weed control at 250 g/ha (Setaria) was 90%, the pest or weed control at 250 g/ha (Viola) was 100% and the pest or weed control at 250 g/ha (Amaranthus) was 100%.

With `CC(Nc1nc(N)nc(C(Cl)Cl)n1)c1ccc(Cl)cc1` (stereo not drawn) [drawing 129] the pest or weed control at 500 g/ha (Chenopodium) was 100%, the pest or weed control at 500 g/ha (Polygonum) was 100% and the plant injury at 500 g/ha (Wheat) was 10%. It also gave a pest or weed control at 500 g/ha (Setaria) of 100%, a pest or weed control at 500 g/ha (Viola) of 100% and a pest or weed control at 500 g/ha (Amaranthus) of 100%.

For `CC(Cl)c1nc(N)nc(NC(C)c2ccc(Cl)cc2)n1` (stereo not drawn) [drawing 131], the “% damage, Chenopodium” value (Chenopodium) was 100%, the “% damage, Polygonum” value (Polygonum) was 100% and the “% damage, Wheat” value (Wheat) was 10%. For the same compound, the “% damage, Setaria” value (Setaria) was 90%, the “% damage, Viola” value (Viola) was 100% and the “% damage, Amaranthus” value (Amaranthus) was 100%.

`COc1ccc(C(C)Nc2nc(N)nc(C(F)(F)F)n2)cc1` (stereo not drawn) [Example 79] was tested, and the activity against weeds (weeds) was “strong activity”.

With `COc1ccc(C(C)Nc2nc(N)nc(C(C)F)n2)cc1` (stereo not drawn) [drawing 136] the pest or weed control at 250 g/ha (Chenopodium) was 100%, the pest or weed control at 250 g/ha (Polygonum) was 100% and the plant injury at 250 g/ha (Wheat) was 10%. The pest or weed control at 250 g/ha (Viola) was 95% and the pest or weed control at 250 g/ha (Amaranthus) was 100%.

With `CCc1nc(NC(C)=O)nc(NC(C)c2ccc(Cl)cc2)n1` (stereo not drawn) [drawing 132] the pest or weed control at 500 g/ha (Chenopodium) was 100%, the pest or weed control at 500 g/ha (Polygonum) was 100% and the plant injury at 500 g/ha (Wheat) was 10%. It also gave a pest or weed control at 500 g/ha (Setaria) of 80%, a pest or weed control at 500 g/ha (Viola) of 100% and a pest or weed control at 500 g/ha (Amaranthus) of 100%.
